Source: publication PMC6435784, “Gut Microbiota-Based Pharmacokinetics and the Antidepressant Mechanism of Paeoniflorin” (Frontiers in Pharmacology, 2019)
Like-named read-outs stand apart in the source and are kept apart here.

Tests used:
gut microbiota = assay: Analysis of microbial diversity by 16S rRNA gene sequencing; assay type: in vivo, rat; conditions: depression model rats, oral 20 mg/kg, 2 weeks of treatment
Experimental: Rat feces of the chronic unpredictable depression model group were collected after 2 weeks of treatment. Three groups, including the normal control group, the model control group, the paeoniflorin treatment group (oral, 20 mg/kg) were selected. Barcoded pyro sequencing analysis was performed on the V3 and V4 regions by 16S rRNA gene sequencing.

[1] = Pharmacokinetics of paeoniflorin in normal SD rats (plasma, LC-MS/MS); assay type: in vivo, rat; conditions: for MRT last: read-out: MRT (0-t); for MRT inf: read-out: MRT (0-∞); for half-life: read-out: t1/2z (converted)
Experimental: Chromatography separation was performed using an XSS T3 column (3.5 μm, 2.1 mm × 100 mm, Waters, Milford, MA, United States) with the column temperature maintained at 40°C at a flow rate of 0.4 mL/min. […] The gradient was as follows: 25% eluent B for 2 min; 25–85% B from 2 to 4 min; 85–25% B from 4 to 5 min and held at 25% from 5 to 7 min. The autosampler temperature was set to 4°C. Mass spectrometry was carried out using multiple reaction monitoring mode (MRM). […] The nebulizing gas flow rate was 2.8 L/min, the drying gas flow rate was 10 L/min, and the heating gas flow rate was 10 L/min. […] Plasma samples were immediately stored at 4°C until analysis. The method validation assays were carried out in terms of specificity, linearity, sensitivity, accuracy, precisions, recovery, matrix effect and stability. […] Statistical analyses were conducted using two-way ANOVA and Student’s t-test with GraphPad Prism Version 5 (GraphPad Software, La Jolla, CA, United States). The data are expressed as the means ± standard deviation. […] DAS 3.0 was used to calculate the plasma pharmacokinetic parameters.

[2] = Metabolism of paeoniflorin in liver microsome in vitro; assay type: in vitro ADME; conditions: 5 μM paeoniflorin, 1 mg/mL protein, NADPH, 37°C, incubation 2 h
Experimental: Samples were incubated at 37°C in a shaker. The incubation mixtures were 0.2 mL of the final volume and the protein concentration was 1 mg/mL. […] The reaction was initiated by the addition of NADPH after a 3 min preincubation at 37°C. The above reactions were terminated by the addition of 0.4 mL acetonitrile (1:2). Proteins were precipitated by centrifugation at 10,625 g for 5 min, and 10 μL supernatant was injected into the UPLC system for quantification.

[3] = system: rat intestinal microbial culture; assay: Metabolism of paeoniflorin by intestinal bacteria in vitro; assay type: in vitro ADME; conditions: 24-h incubation
Experimental: The colon contents of six rats were pooled, and 5 g of the sample was transferred to a ziplock bag and then mixed thoroughly with anaerobic medium (100 mL). After mixing completely, the cultures were stored at 37°C and preincubated for 1 h. Then, 10 μL of paeoniflorin (100 mg/mL) was added to fresh rat intestinal microbial culture (990 μL) under anaerobic conditions of N2, with a final concentration of 1 mg/mL of paeoniflorin in the culture system ([Hattori et al., 1988]). The inactivated bacteria solution was used as a negative control. Cultures were incubated at 37°C for 0, 2, 6, 12, and 24 h, respectively. After terminated the reaction with 3 volumes of acetonitrile, samples were vortexed for 30 s and then centrifuged at 16,162 g for 5 min. A total of 100 μL of the supernatant were transferred to a centrifuge tube, centrifuged at 16,162 g for 5 min and filtered through a 0.45 μm microporous membrane. Finally, 5 μL of the filtrate solution was collected for analysis.

[4] = Metabolism of paeoniflorin in the homogenate of the liver tissue in vitro; assay type: in vitro ADME, rat; conditions: 100 μg/mL paeoniflorin, 37°C, 1 h, compared with intestinal bacteria incubation system, ***P < 0.001
Experimental: Fresh rat liver tissue was cut into small pieces, 0.05 M Tris-HC1 buffer (1:2, pH 7.4) was added. The mixture was homogenized in a mixer and paeoniflorin was added to the liver homogenate at a final concentration of 100 μg/mL. Then, the mixture was incubated at 37°C for 1 h. The above reactions were terminated by the addition of 0.4 mL acetonitrile (1:2). Proteins were precipitated by centrifugation at 10,625 g for 5 min, and 10 μL supernatant was injected into the UPLC system for quantification.

[5] = Pharmacokinetics of paeoniflorin in pseudo-germ-free (PGF) rats; assay type: in vivo; conditions: SD, rat, oral paeoniflorin 20 mg/kg, plasma analyte = labelled substance; for AUC(0-t) / Cmax: plasma, po, 20 mg/kg
Experimental: Chromatography separation was performed using an XSS T3 column (3.5 μm, 2.1 mm × 100 mm, Waters, Milford, MA, United States) with the column temperature maintained at 40°C at a flow rate of 0.4 mL/min. […] The gradient was as follows: 25% eluent B for 2 min; 25–85% B from 2 to 4 min; 85–25% B from 4 to 5 min and held at 25% from 5 to 7 min. The autosampler temperature was set to 4°C. Mass spectrometry was carried out using multiple reaction monitoring mode (MRM). […] The nebulizing gas flow rate was 2.8 L/min, the drying gas flow rate was 10 L/min, and the heating gas flow rate was 10 L/min. […] The remaining fourteen SD rats were orally administered saline equivalently. Two days after administration, pharmacokinetic experiments were performed. […] Plasma samples were immediately stored at 4°C until analysis. Statistical analyses were conducted using two-way ANOVA and Student’s t-test with GraphPad Prism Version 5 (GraphPad Software, La Jolla, CA, United States). The data are expressed as the means ± standard deviation. […] DAS 3.0 was used to calculate the plasma pharmacokinetic parameters.

[6] = SD, rat, plasma, intravenous 2 mg/kg, normal rats, n = 5
[7] = SD, rat, plasma, normal rats, oral 20 mg/kg, n = 6
[8] = SD, rat, normal rats, oral paeoniflorin 20 mg/kg, plasma analyte = labelled substance, n = 6
[9] = normal rats, oral 20 mg/kg, n = 6
[10] = normal rats, oral paeoniflorin 20 mg/kg, plasma analyte = labelled substance, n = 6
[11] = PGF rats (antibiotic pretreated)

C[C@@]12C[C@@]3(O)O[C@@H](O1)[C@]1(COC(=O)c4ccccc4)[C@H]3C[C@@]12O[C@@H]1O[C@H](CO)[C@@H](O)[C@H](O)[C@H]1O [Paeoniflorin]
abundance of Facklamia, Jeotgalicoccus, Ruminiclostridium_5 and Eubacterium_coprostanoligenes_group in feces (gut microbiota): decreased | abundance of Lactobacillus, Lachnospira, Eubacterium_ruminantium_group and Roseburia in feces (gut microbiota): increased | AUC(0-t) ([1]; SD, rat, plasma, iv, 2 mg/kg, intravenous 2 mg/kg, normal rats, n = 5, read-out: AUC (0-t)): 1060 ± 326 ng·h/mL | bioavailability ([1]; SD, rat, plasma, oral, rats, oral 20 mg/kg vs intravenous 2 mg/kg, F = AUCT·Div/AUCiv·DT × 100%, read-out: absolute (oral) bioavailability): 2.32% | AUC(0-t) ([1]; SD, rat, plasma, po, 20 mg/kg, normal rats, oral paeoniflorin 20 mg/kg, plasma analyte = labelled substance, Figures 2C, 3B, 3C, read-out: AUC(0-t) (unit inferred)): 245 ng·h/mL | Cmax ([1]; SD, rat, plasma, po, 20 mg/kg, normal rats, oral paeoniflorin 20 mg/kg, plasma analyte = labelled substance, Figures 2C, 3B, 3C, read-out: Cmax (unit inferred)): 119 ng/mL | AUC(0-t) ([1]; SD, rat, plasma, po, 20 mg/kg, normal rats, oral paeoniflorin 20 mg/kg, plasma analyte = labelled substance, n = 6, read-out: AUC (0-t)): 245 ± 72.8 ng·h/mL | Cmax ([1]; SD, rat, plasma, po, 20 mg/kg, normal rats, oral paeoniflorin 20 mg/kg, plasma analyte = labelled substance, n = 6, read-out: Cmax): 119 ± 54.3 ng/mL | AUC(0-inf) [1, 6]: 1070 ± 325 ng·h/mL | clearance ([1]; SD, rat, plasma, intravenous 2 mg/kg, normal rats, n = 5, read-out: CLz (converted)): 33.3 mL/min/kg | MRT last [1, 6]: 0.903 ± 0.122 h | MRT inf [1, 6]: 0.981 ± 0.07 h | Vd ([1]; SD, rat, plasma, intravenous 2 mg/kg, normal rats, n = 5, read-out: Vz): 6.09 ± 3.11 L/kg | half-life [1, 6]: 2.06 ± 0.771 h | MRT last [1, 7]: 2 ± 0.353 h | MRT inf [1, 7]: 2.04 ± 0.368 h | AUC(0-inf) [1, 8]: 246 ± 72.8 ng·h/mL | Tmax [1, 8]: 0.458 ± 0.195 h | half-life [1, 8]: 1.3 ± 0.474 h | CLz [1, 9]: 1473 ± 483.58 mL/min/kg | Vz [1, 9]: 161.261 ± 82.928 L/kg | AUC(0-t) [1, 10]: 245.29 ± 72.811 ng·h/mL | Cmax [1, 10]: 119.36 ± 54.3 ng/mL | absolute (oral) bioavailability ([1]; rats, oral 20 mg/kg vs intravenous 2 mg/kg, F = AUCT·Div/AUCiv·DT × 100%): 2.3% | benzoic acid production in the liver microsome system [2]: no benzoic acid produced | transformation of paeoniflorin in intestinal bacteria ([3]; 37°C, anaerobic, 1 mg/mL paeoniflorin, normal gut bacteria): completely transformed | metabolism of paeoniflorin in inactivated gut bacteria (control group) ([3]; inactivated bacteria solution): not metabolized | production of benzoic acid in liver tissue homogenate [4]: significantly lower than that in the intestinal bacteria incubation system | AUC(0-t) ([5]; PGF rats (antibiotic pretreated), read-out: AUC (0-t)): 296 ± 100 ng·h/mL | Cmax ([5]; PGF rats (antibiotic pretreated), read-out: Cmax): 134 ± 48.5 ng/mL | AUC(0-t) ([5]; PGF rats, Figures 3B, 3C, read-out: AUC(0-t) (unit inferred)): 296 ng·h/mL | Cmax ([5]; PGF rats, Figures 3B, 3C, read-out: Cmax (unit inferred)): 134 ng/mL | AUC(0-inf) [5, 11]: 312 ± 123 ng·h/mL | Tmax [5, 11]: 0.388 ± 0.136 h | half-life ([5]; PGF rats (antibiotic pretreated), read-out: t1/2z (converted)): 2.58 ± 1.61 h
